We go through 13 compounds from US20090099177A1, “PYRIDYL COMPOUNDS” (priority 2006, published 2009).

Counter-ions that a name gives are not always drawn.

The target of one experiment is T1, human EP1 receptor (Homo sapiens, UniProt P34995).
T1 construct: expressed in transfected cells; host or cells: CHO-K1
T1 sequence (P34995 1-402): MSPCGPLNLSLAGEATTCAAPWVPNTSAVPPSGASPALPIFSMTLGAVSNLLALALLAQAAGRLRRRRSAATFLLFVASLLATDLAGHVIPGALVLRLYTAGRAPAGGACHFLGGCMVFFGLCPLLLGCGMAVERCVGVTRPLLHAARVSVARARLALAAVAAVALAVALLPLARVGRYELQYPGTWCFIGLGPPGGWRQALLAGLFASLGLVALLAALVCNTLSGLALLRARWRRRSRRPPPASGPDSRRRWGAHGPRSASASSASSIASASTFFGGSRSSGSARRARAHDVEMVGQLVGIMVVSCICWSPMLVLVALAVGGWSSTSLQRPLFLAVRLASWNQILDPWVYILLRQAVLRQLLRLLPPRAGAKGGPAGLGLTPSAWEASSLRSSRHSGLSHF
Briefly: human EP1 calcium mobilisation assay. Particulars: for Ki: human EP1, CHO-K1 cells, antagonism of PGE2, averages of a number of experiments, read-out: functional pKi value (converted). Type of experiment: cell-based. The method, then:
(§1) Briefly, the antagonist properties of compounds are assessed by their ability to inhibit the mobilisation of intracellular calcium ([Ca^2+]i) in response to activation of EP1 or EP3 receptors by the natural agonist hormone prostaglandin E2 (PGE2). Increasing concentrations of antagonist reduce the amount of calcium that a given concentration of PGE2 can mobilise. The net effect is to displace the PGE2 concentration-effect curve to higher concentrations of PGE2. The amount of calcium produced is assessed using a calcium-sensitive fluorescent dye such as Fluo-4, AM and a suitable instrument such as a Fluorimetric Imaging Plate Reader (FLIPR). Increasing amounts of [Ca^2+]i produced by receptor activation increase the amount of fluorescence produced by the dye and give rise to an increasing signal. The signal may be detected using the FLIPR instrument and the data generated may be analysed with suitable curve-fitting software.
(§2) The human EP1 or EP3 calcium mobilisation assay (hereafter referred to as ‘the calcium assay’) utilises Chinese hamster ovary-K1 (CHO-K1) cells into which a stable (pCIN; BioTechniques 20 (1996): 102-110) vector containing either EP1 or EP3 cDNA has previously been transfected. Cells are cultured in suitable flasks containing culture medium such as DMEM:F-12 supplemented with 10% v/v foetal calf serum, 2 mM L-glutamine, 0.25 mg/ml geneticin, 100 μM flurbiprofen and 10 μg/ml puromycin.
(§3) For assay, cells are harvested using a proprietary reagent that dislodges cells such as Versene. Cells are re-suspended in a suitable quantity of fresh culture media for introduction into a 384-well plate. Following incubation for 24 hours at 37° C. the culture media is replaced with a medium containing Fluo-4 and the detergent pluronic acid, and a further incubation takes place. Concentrations of compounds are then added to the plate in order to construct concentration-effect curves. This may be performed on the FLIPR in order to assess the agonist properties of the compounds. Concentrations of PGE2 are then added to the plate in order to assess the antagonist properties of the compounds.
(§4) The data so generated may be analysed by means of a computerised curve-fitting routine. The concentration of compound that elicits a half-maximal inhibition of the calcium mobilisation induced by PGE2 (pIC50) may then be estimated.
In general terms: A change in cytosolic calcium serves as a functional read-out for many receptors and channels.

The next experiment addresses T2, human EP3 receptor (Homo sapiens, UniProt P43115).
T2 construct: expressed in transfected cells; host or cells: CHO-K1
T2 sequence (P43115 1-390): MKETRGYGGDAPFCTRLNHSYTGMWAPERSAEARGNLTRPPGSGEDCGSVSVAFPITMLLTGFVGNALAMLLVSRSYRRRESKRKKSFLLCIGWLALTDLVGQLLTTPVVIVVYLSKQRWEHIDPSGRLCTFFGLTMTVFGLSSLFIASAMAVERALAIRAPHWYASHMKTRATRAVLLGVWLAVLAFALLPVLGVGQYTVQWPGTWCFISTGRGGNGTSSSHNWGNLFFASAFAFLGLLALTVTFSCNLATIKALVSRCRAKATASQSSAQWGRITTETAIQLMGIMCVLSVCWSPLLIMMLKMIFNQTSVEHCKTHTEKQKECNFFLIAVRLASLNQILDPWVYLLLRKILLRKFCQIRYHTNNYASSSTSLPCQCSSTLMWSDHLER
Description: human EP3 calcium mobilisation assay. In kind it is cell-based. Particulars: human EP3, CHO-K1 cells, antagonism of PGE2; averages of a number of experiments; read-out: functional pKi value (converted). The method, then:
as §1, §2, §3, §4

The target of experiment [1] is T3, human prostanoid EP1 receptor (Homo sapiens, UniProt P34995).
T3 construct: expressed in transfected cells; host or cells: CHO-K1 (membrane fraction)
T3 sequence (P34995 1-402): T1 sequence (P34995 1-402)
Briefly: Binding assay for the human prostanoid EP1 receptor (competition with [3H]-PGE2). The note with it: [3H]-PGE2 competition, human EP1, CHO-K1 membranes; averages of a number of experiments; read-out: pIC50 value (converted). The procedure: Competition assay using [^3H]-PGE2.
Compound potencies are determined using a radioligand binding assay. In this assay compound potencies are determined from their ability to compete with tritiated prostaglandin E2 ([^3H]-PGE2) for binding to the human EP1 receptor.
This assay utilises Chinese hamster ovary-K1 (CHO-K1) cells into which a stable vector containing the EP1 cDNA has previously been transfected. Cells are cultured in suitable flasks containing culture medium such as DMEM:F-12 supplemented with 10% v/v foetal calf serum, 2 mM L-glutamine, 0.25 mg/ml geneticin, 10 μg/ml puromycin and 10 μM indomethacin.
Cells are detached from the culture flasks by incubation in calcium and magnesium free phosphate buffered saline containing 1 mM disodium ethylenediaminetetraacetic acid (Na2EDTA) and 10 μM indomethacin for 5 min. The cells are isolated by centrifugation at 250×g for 5mins and suspended in an ice cold buffer such as 50 mM Tris, 1 mM Na2EDTA, 140 mM NaCl, 10 μM indomethacin (pH 7.4). The cells are homogenised using a Polytron tissue disrupter (2×10 s burst at full setting), centrifuged at 48,000×g for 20mins and the pellet containing the membrane fraction is washed (optional) three times by suspension and centrifugation at 48,000×g for 20mins. The final membrane pellet is suspended in an assay buffer such as 10 mM 2-[N-morpholino]ethanesulphonic acid, 1 mM Na2EDTA, 10 mM MgCl2 (pH 6). Aliquots are frozen at −80° C. until required.
For the binding assay the cell membranes, competing compounds and [^3H]-PGE2 (3 nM final assay concentration) are incubated in a final volume of 100 μl for 30 min at 30° C. All reagents are prepared in assay buffer. Reactions are terminated by rapid vacuum filtration over GF/B filters using a Brandell cell harvester. The filters are washed with ice cold assay buffer, dried and the radioactivity retained on the filters is measured by liquid scintillation counting in Packard TopCount scintillation counter.
The data are analysed using non linear curve fitting techniques to determine the concentration of compound producing 50% inhibition of specific binding (IC50).

As for `CC(C)(C)NC(=O)c1cccc(Cc2cc(Cl)ccc2OCc2ccccc2)n1` [Example 8, 6-({5-Chloro-2-[(phenylmethyl)oxy]phenyl}methyl)-N-(1,1-dimethylethyl)-2-pyridinecarboxamide], the IC50 on human EP1 receptor (human EP1 calcium mobilisation assay, read-out: pIC50 values (converted)) was over 10000 nM. Moreover, the Ki on human EP3 receptor was at most 3160 nM.
Turning to `Clc1ccc(OCc2ccccc2)c(Cc2cccc(-c3nc4cncnc4[nH]3)n2)c1` [Example 33, 8-[6-({5-Chloro-2-[(phenylmethyl)oxy]phenyl}methyl)-2-pyridinyl]-1H-purinehydrochloride], the IC50 in experiment [1] is at most 100 nM. In addition, the Ki is at most 316 nM at human EP1 receptor and at most 1000 nM at human EP3 receptor.
`CC(C)COc1ccc(Cl)cc1Cc1cccc(-c2nc3cc4cnn(C)c4cc3[nH]2)n1` [Example 23, 6-[6-({5-Chloro-2-[(2-methylpropyl)oxy]phenyl}methyl)-2-pyridinyl]-1-methyl-1,5-dihydroimidazo[4,5-f]indazolehydrochloride]: the figures for the Ki at human EP1 receptor and on human EP3 receptor were at most 316 nM and at most 1000 nM, respectively.
Turning to `O=C(Nc1cccc(Cc2cc(Cl)ccc2OCc2ccccc2)n1)C1CCOCC1` [Example 14, N-[6-({5-Chloro-2-[(phenylmethyl)oxy]phenyl}methyl)-2-pyridinyl]tetrahydro-2H-pyran-4-carboxamide], the Ki at human EP1 receptor is at most 316 nM; on human EP3 receptor, at most 3160 nM.
`CC(C)COc1ccc(Cl)cc1Cc1cccc(-c2nc3ncccc3[nH]2)n1` [Example 21, 2-[6-({5-Chloro-2-[(2-methylpropyl)oxy]phenyl}methyl)-2-pyridinyl]-1H-imidazo[4,5-b]pyridine hydrochloride]: in experiment [1], the IC50 was at most 100 nM. Besides, the figures for the Ki on human EP1 receptor and at human EP3 receptor were at most 316 nM and at most 3160 nM, respectively.
As for `CC(C)NC(=O)c1cccc(Cc2cc(Cl)ccc2OCc2ccccc2)n1` [Example 9, 6-({5-Chloro-2-[(phenylmethyl)oxy]phenyl}methyl)-N-(1-methylethyl)-2-pyridinecarboxamide], the Ki was at most 316 nM at human EP1 receptor and at most 1000 nM on human EP3 receptor.
As for `CC(C)COc1ccc(Cl)cc1Cc1cccc(-c2nc3ccc(CN(C)C)cc3[nH]2)n1` [Example 51, ({2-[6-({5-Chloro-2-[(2-methylpropyl)oxy]phenyl}methyl)-2-pyridinyl]-1H-benzimidazol-5-yl}methyl)dimethylaminehydrochloride], the IC50 in experiment [1] is at most 100 nM. In addition, the figures for the Ki at human EP1 receptor and on human EP3 receptor were at most 316 nM and at most 3160 nM, respectively.
Regarding `Clc1ccc(OCc2ccccc2)c(Cc2cccc(-c3nc4cc5cn[nH]c5cc4[nH]3)n2)c1` [Example 39, 6-[6-({5-Chloro-2-[(phenylmethyl)oxy]phenyl}methyl)-2-pyridinyl]-1,5-dihydroimidazo[4,5-f]indazolehydrochloride], the IC50 in experiment [1] was at most 100 nM. The Ki at human EP1 receptor was at most 316 nM; at human EP3 receptor, at most 3160 nM.
As to `Clc1ccc(OCc2ccccc2)c(Cc2cccc(-c3ncc[nH]3)n2)c1` [Example 43, 2-({5-Chloro-2-[(phenylmethyl)oxy]phenyl}methyl)-6-(1H-imidazol-2-yl)pyridine Hydrochloride], the IC50 in experiment [1] is at most 100 nM. For the same compound, the Ki at human EP1 receptor is at most 316 nM; on human EP3 receptor it was at most 1000 nM.
With `Fc1cc(Cl)ccc1COc1ccc(Cl)cc1Cc1cccc(-c2nc3cncnc3[nH]2)n1` [Example 20, 8-{6-[(5-Chloro-2-{[(4-chloro-2-fluorophenyl)methyl]oxy}phenyl)methyl]-2-pyridinyl}-1H-purinehydrochloride], the IC50 in experiment [1] was at most 100 nM. For the same compound, at human EP1 receptor, the Ki is at most 316 nM.
With `CC(C)COc1ccc(Cl)cc1Cc1cccc(-c2nc3ccc(CN4CCCC4)cc3[nH]2)n1` [Example 49, 2-[6-({5-Chloro-2-[(2-methylpropyl)oxy]phenyl}methyl)-2-pyridinyl]-5-(1-pyrrolidinylmethyl)-1H-benzimidazole hydrochloride], the figures for the Ki at human EP1 receptor and on human EP3 receptor were at most 10000 nM and at most 3160 nM, respectively.
`CC(C)COc1ccc(Cl)cc1Cc1cccc(-c2nc3c(ccc4nn[nH]c43)[nH]2)n1` [Example 25, 7-[6-({5-Chloro-2-[(2-methylpropyl)oxy]phenyl}methyl)-2-pyridinyl]-1,6-dihydroimidazo[4,5-e][1,2,3]benzotriazolehydrochloride]: the Ki is at most 316 nM at human EP1 receptor and at most 1000 nM at human EP3 receptor.
As to `CN(CCC#N)Cc1ccc(NC(=O)c2cccc(Cc3cc(Cl)ccc3OCc3ccc(Cl)cc3F)n2)cc1` [Example 57, 6-[(5-Chloro-2-{[(4-chloro-2-fluorophenyl)methyl]oxy}phenyl)methyl]-N-(4-{[(2-cyanoethyl)(methyl)amino]methyl}phenyl)-2-pyridinecarboxamide], the IC50 in experiment [1] was at most 100 nM. The Ki at human EP1 receptor is at most 10000 nM.
